Patent US6737383B1, “Herbicidal oxadiazolidines” (priority 1999, dated 2004)

Tests used:
corn = test: Test B pre/postemergence corn; assay type: in vivo, Zea mays
Method in brief: (§1)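 Response is a visual 0-to-10 score relative to untreated plants, where 0 means no effect and 10 means complete control, taken twelve to sixteen days after application. Treatments went onto soil at planting and onto foliage of 1- to 4-leaf plants, using a surfactant-containing non-phytotoxic solvent.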

rice = test: Test B flood test rice; assay type: in vivo, Oryza sativa
Procedure: At the same time, these crop and weed species were also treated with postemergence applications of test chemicals formulated in the same manner. Plants ranged in height from 2 to 18 cm (1- to 4-leaf stage) for postemergence treatments. Plant species in the flood test consisted of rice (Oryza sativa), smallflower flatsedge (Cyperus difformis), duck salad (Heteranthera limosa) and bamyardgrass (Echinochloa crus-galli) grown to the 2-leaf stage for testing. Treated plants and controls were maintained in a greenhouse for twelve to sixteen days, after which all species were compared to controls and visually evaluated. Plant response ratings, summarized in Table B, are based on a scale of 0 to 10 where 0 is no effect and 10 is complete control. A dash (−) response means no test result.

smallflower flatsedge = test: Test B flood test smallflower flatsedge; assay type: in vivo, Cyperus difformis
Method in brief: (§2)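 Read-out is a visual response score from 0 (no effect) to 10 (complete control), assigned by comparison with untreated controls. Treatment was applied at the 2-leaf stage, and plants stayed in the greenhouse for twelve to sixteen days before scoring.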

duck salad = test: Test B flood test duck salad; assay type: in vivo, Heteranthera limosa
Method in brief: as §2

bamyardgrass = test: Test B flood test barnyardgrass; assay type: in vivo, Echinochloa crus-galli
Method in brief: as §2

blackgrass = test: Test B pre/postemergence blackgrass; assay type: in vivo, Alopecurus myosuroides
Method in brief: as §1

surinam grass = test: Test B pre/postemergence surinam grass; assay type: in vivo, Brachiaria decumbens
Method in brief: as §1

cocklebur = test: Test B pre/postemergence cocklebur; assay type: in vivo, Xanthium strumarium
Method in brief: as §1

crabgrass = test: Test B pre/postemergence crabgrass; assay type: in vivo, Digitaria sanguinalis
Method in brief: as §1

giant foxtail = test: Test B pre/postemergence giant foxtail; assay type: in vivo, Setaria faberii
Method in brief: as §1

morningglory = test: Test B pre/postemergence morningglory; assay type: in vivo, Ipomoea hederacea
Method in brief: as §1

pigweed = test: Test B pre/postemergence pigweed; assay type: in vivo, Amaranthus retroflexus
Method in brief: as §1

rape = test: Test B pre/postemergence rape; assay type: in vivo, Brassica napus
Method in brief: as §1

soybean = test: Test B pre/postemergence soybean; assay type: in vivo, Glycine max
Method in brief: as §1

sugar beet = test: Test B pre/postemergence sugar beet; assay type: in vivo, Beta vulgaris
Method in brief: as §1

velvetleaf = test: Test B pre/postemergence velvetleaf; assay type: in vivo, Abutilon theophrasti
Method in brief: as §1

wheat = test: Test B pre/postemergence wheat; assay type: in vivo, Triticum aestivum
Method in brief: as §1

wild oat = test: Test B pre/postemergence wild oat; assay type: in vivo, Avena fatua
Method in brief: as §1

purple nutsedge = test: Test B pre/postemergence purple nutsedge; assay type: in vivo, Cyperus rotundus
Method in brief: as §1

[1] = Postemergence, Rate 62 g/ha, scale 0 to 10, 0 is no effect, 10 is complete control
[2] = Rate 125 g/ha, Postemergence section (flood test species), scale 0 to 10, 0 no effect, 10 complete control
[3] = Rate 500 g/ha, listed under Postemergence (flood test species), scale 0 to 10, 0 no effect, 10 complete control
[4] = flood test, listed under Postemergence, Rate 250 g/ha, scale 0 to 10, 0 no effect, 10 complete control
[5] = Postemergence, Rate 250 g/ha, scale 0 to 10
[6] = Postemergence, Rate 500 g/ha, scale of 0 to 10 where 0 is no effect and 10 is complete control
[7] = Preemergence, Rate 62 g/ha, scale 0 to 10 (0 no effect, 10 complete control)
[8] = Preemergence, Rate 125 g/ha, scale of 0 to 10 where 0 is no effect and 10 is complete control
[9] = Preemergence, Rate 250 g/ha, scale 0 to 10, 0 is no effect, 10 is complete control
[10] = Preemergence, Rate 500 g/ha, scale 0 to 10, 0 is no effect, 10 is complete control
[11] = Rate 62 g/ha, Postemergence, scale of 0 to 10 where 0 is no effect and 10 is complete control
[12] = Rate 125 g/ha, Postemergence, scale 0 to 10, 0 is no effect, 10 is complete control
[13] = Postemergence block (flood test species), Rate 250 g/ha, scale 0 to 10
[14] = Postemergence section (flood test species), Rate 500 g/ha, scale of 0 to 10 where 0 is no effect and 10 is complete control
[15] = Rate 125 g/ha, Postemergence section (flood test species), scale 0 to 10, 0 is no effect, 10 is complete control
[16] = Rate 62 g/ha, Postemergence (flood test species), scale of 0 to 10 where 0 is no effect and 10 is complete control

## Cc1ccccc1-n1c(=O)on(C(=O)N(c2ccc(F)cc2F)C2CC2)c1=O [Compound 50]
corn; Rate 125 g/ha, Postemergence, scale 0 to 10, 0 no effect, 10 complete control
  Corn plant response rating: 0
rice; [1]
  Rice plant response rating: 0
rice; [2]
  Rice plant response rating: 0
rice; [3]
  Rice plant response rating: 0
rice; [4]
  Rice plant response rating: 0
Smallflower flatsedge; [1]
  S. Flatsedge plant response rating: 0
Smallflower flatsedge; [2]
  S. Flatsedge plant response rating: 0
Smallflower flatsedge; [3]
  S. Flatsedge plant response rating: 0
Smallflower flatsedge; [4]
  S. Flatsedge plant response rating: 0
Duck salad; [1]
  Ducksalad plant response rating: 0
Duck salad; [2]
  Ducksalad plant response rating: 0
Duck salad; [3]
  Ducksalad plant response rating: 0
Duck salad; [4]
  Ducksalad plant response rating: 0
bamyardgrass; [1]
  Barnyardgrass plant response rating: 0
bamyardgrass; [2]
  Barnyardgrass plant response rating: 0
bamyardgrass; [3]
  Barnyardgrass plant response rating: 0
bamyardgrass; [4]
  Barnyardgrass plant response rating: 0

## CC(C)N(C(=O)n1oc(=O)n(C2CCCCCC2)c1=O)C1=CCCCC1 [Compound 428]
blackgrass; [5]
  Blackgrass plant response rating: 3
blackgrass; [6]
  Blackgrass plant response rating: 4
blackgrass; [7]
  Plant response rating, Blackgrass: 0
blackgrass; [8]
  Plant response rating, Blackgrass: 0
blackgrass; [9]
  Blackgrass plant response rating: 0
blackgrass; [10]
  Blackgrass plant response rating: 2
blackgrass; [11]
  Blackgrass plant response rating: 0
blackgrass; [12]
  Blackgrass plant response rating: 0
Surinam grass; Postemergence, Rate 250 g/ha, scale 0 to 10, 0 no effect, 10 complete control
  B. signalgrass plant response rating: 0
Surinam grass; [6]
  B. signalgrass plant response rating: 0
Surinam grass; [7]
  Plant response rating, B. signalgrass: 0
Surinam grass; [8]
  Plant response rating, B. signalgrass: 0
Surinam grass; [9]
  B. signalgrass plant response rating: 0
Surinam grass; [10]
  B. signalgrass plant response rating: 3
Surinam grass; [11]
  B. signalgrass plant response rating: 0
Surinam grass; [12]
  B. signalgrass plant response rating: 0
cocklebur; [5]
  Cocklebur plant response rating: 0
cocklebur; [6]
  Cocklebur plant response rating: 1
cocklebur; [7]
  Plant response rating, Cocklebur: 0
cocklebur; [8]
  Plant response rating, Cocklebur: 0
cocklebur; [9]
  Cocklebur plant response rating: 0
cocklebur; [10]
  Cocklebur plant response rating: 0
cocklebur; [11]
  Cocklebur plant response rating: 0
cocklebur; [12]
  Cocklebur plant response rating: 0
corn; [5]
  Corn plant response rating: 0
corn; [6]
  Corn plant response rating: 0
corn; [7]
  Plant response rating, Corn: 0
corn; [8]
  Plant response rating, Corn: 0
corn; [9]
  Corn plant response rating: 0
corn; [10]
  Corn plant response rating: 0
corn; [11]
  Corn plant response rating: 0
corn; [12]
  Corn plant response rating: 0
crabgrass; [5]
  Crabgrass plant response rating: 0
crabgrass; [6]
  Crabgrass plant response rating: 3
crabgrass; [7]
  Plant response rating, Crabgrass: 2
crabgrass; [8]
  Plant response rating, Crabgrass: 7
crabgrass; [9]
  Crabgrass plant response rating: 9
crabgrass; [10]
  Crabgrass plant response rating: 10
crabgrass; [11]
  Crabgrass plant response rating: 0
crabgrass; [12]
  Crabgrass plant response rating: 0
Giant foxtail; [5]
  Giant foxtail plant response rating: 0
Giant foxtail; [6]
  Giant foxtail plant response rating: 0
Giant foxtail; [7]
  Plant response rating, Giant foxtail: 0
Giant foxtail; [8]
  Plant response rating, Giant foxtail: 7
Giant foxtail; [9]
  Giant foxtail plant response rating: 8
Giant foxtail; [10]
  Giant foxtail plant response rating: 10
Giant foxtail; [11]
  Giant foxtail plant response rating: 0
Giant foxtail; [12]
  Giant foxtail plant response rating: 0
morningglory; [5]
  Morningglory plant response rating: 2
morningglory; [6]
  Morningglory plant response rating: 3
morningglory; [7]
  Plant response rating, Morningglory: 0
morningglory; [8]
  Plant response rating, Morningglory: 0
morningglory; [9]
  Morningglory plant response rating: 0
morningglory; [10]
  Morningglory plant response rating: 0
morningglory; [12]
  Morningglory plant response rating: 1
pigweed; [5]
  Redroot pigweed plant response rating: 0
pigweed; [6]
  Redroot pigweed plant response rating: 3
pigweed; [7]
  Plant response rating, Redroot pigweed: 0
pigweed; [8]
  Plant response rating, Redroot pigweed: 0
pigweed; [9]
  Redroot pigweed plant response rating: 0
pigweed; [10]
  Redroot pigweed plant response rating: 0
pigweed; [12]
  Redroot pigweed plant response rating: 0
rape; [5]
  Rape plant response rating: 0
rape; [6]
  Rape plant response rating: 0
rape; [7]
  Plant response rating, Rape: 0
rape; [8]
  Plant response rating, Rape: 0
rape; [9]
  Rape plant response rating: 0
rape; [10]
  Rape plant response rating: 0
rape; [12]
  Rape plant response rating: 0
soybean; [5]
  Soybean plant response rating: 2
soybean; [6]
  Soybean plant response rating: 3
soybean; [7]
  Plant response rating, Soybean: 0
soybean; [8]
  Plant response rating, Soybean: 0
soybean; [9]
  Soybean plant response rating: 0
soybean; [10]
  Soybean plant response rating: 0
soybean; [12]
  Soybean plant response rating: 1
Sugar beet; [5]
  Sugarbeets plant response rating: 0
Sugar beet; [6]
  Sugarbeets plant response rating: 0
Sugar beet; [7]
  Plant response rating, Sugarbeets: 0
Sugar beet; [8]
  Plant response rating, Sugarbeets: 0
Sugar beet; [9]
  Sugarbeets plant response rating: 0
Sugar beet; [10]
  Sugarbeets plant response rating: 0
Sugar beet; [12]
  Sugarbeets plant response rating: 0
velvetleaf; [5]
  Velvetleaf plant response rating: 2
velvetleaf; [6]
  Velvetleaf plant response rating: 7
velvetleaf; [7]
  Plant response rating, Velvetleaf: 0
velvetleaf; [8]
  Plant response rating, Velvetleaf: 0
velvetleaf; [9]
  Velvetleaf plant response rating: 0
velvetleaf; [10]
  Velvetleaf plant response rating: 0
velvetleaf; [12]
  Velvetleaf plant response rating: 0
wheat; [5]
  Wheat plant response rating: 0
wheat; [6]
  Wheat plant response rating: 0
wheat; [7]
  Plant response rating, Wheat: 0
wheat; [8]
  Plant response rating, Wheat: 0
wheat; [9]
  Wheat plant response rating: 0
wheat; [10]
  Wheat plant response rating: 0
wheat; [12]
  Wheat plant response rating: 0
Wild oat; [5]
  Wild oats plant response rating: 0
Wild oat; [6]
  Wild oats plant response rating: 0
Wild oat; [7]
  Plant response rating, Wild oats: 0
Wild oat; [8]
  Plant response rating, Wild oats: 0
Wild oat; [9]
  Wild oats plant response rating: 0
Wild oat; [10]
  Wild oats plant response rating: 2
Wild oat; [12]
  Wild oats plant response rating: 0
Purple nutsedge; [5]
  Nutsedge plant response rating: 0
Purple nutsedge; [6]
  Nutsedge plant response rating: 0
Purple nutsedge; [7]
  Plant response rating, Nutsedge: 0
Purple nutsedge; [8]
  Plant response rating, Nutsedge: 0
Purple nutsedge; [9]
  Nutsedge plant response rating: 0
Purple nutsedge; [10]
  Nutsedge plant response rating: 0
Purple nutsedge; [12]
  Nutsedge plant response rating: 0
rice; [13]
  Rice plant response rating: 2
rice; [14]
  Rice plant response rating: 2
rice; [15]
  Rice plant response rating: 0
Smallflower flatsedge; [13]
  S. Flatsedge plant response rating: 0
Smallflower flatsedge; [14]
  S. Flatsedge plant response rating: 9
Smallflower flatsedge; [15]
  S. Flatsedge plant response rating: 0
Duck salad; [13]
  Ducksalad plant response rating: 3
Duck salad; [14]
  Ducksalad plant response rating: 5
Duck salad; [16]
  Ducksalad plant response rating: 0
Duck salad; [15]
  Ducksalad plant response rating: 0
bamyardgrass; [13]
  Barnyardgrass plant response rating: 2
bamyardgrass; [14]
  Barnyardgrass plant response rating: 5
bamyardgrass; [16]
  Barnyardgrass plant response rating: 0
bamyardgrass; [15]
  Barnyardgrass plant response rating: 0
